# From US20190374601A1, “METHODS FOR TREATING FUNGAL INFECTIONS” (priority 2017, published 2019)
# Starred links: 1 amine or outer side, 2 acyl side, 3 side chain; linkers in the order of their positions; H or OH if unused. Positions of bridges follow the written chain, without caps; N, C: chain ends. Non-standard residues stand in square brackets, D forms with d. Residues, ends and D or L forms follow the SMILES beside them. *: point of attachment. Orn(4R-OH,5R-OCH2CH2NMe3+) = C[N+](C)(C)CCO[C@@H](N[*:3])[C@H](O)C[C@H](N[*:1])C(=O)[*:2]; pTerphenylCO(4''-OnC5H11) = CCCCCOc1ccc(-c2ccc(-c3ccc(C(=O)*)cc3)cc2)cc1; hTyr(3S-OH,4S-OH) = N[C@H](C(=O)O)[C@H](O)[C@@H](O)c1ccc(O)cc1; Pro(3S-OH,4S-Me) = C[C@H]1CN[C@H](C(=O)O)[C@H]1O; Hyp = O=C(O)[C@@H]1C[C@@H](O)CN1
# System: T. mentagrophytes
# Experiment: Clinical evaluation of infected skin, T. mentagrophytes dermatophytosis guinea pig model, different doses once weekly, Example 2
# Assay type: in vivo
# Details: evaluated study day 12, relative to vehicle control
# Experimental: Procedures for animal care and use, preparation of standard inoculum, and infection of the animals were carried out following the same steps as described in Example 1.
# Infected guinea pigs were randomized into the following (1)-(5) groups (10 per group) (see Table 4): (1) a vehicle control (water+mannitol); (2) terbinafine 10 mg/kg PO days 1 and 8, as a positive control; (3) CD101 10 mg/kg SQ days 1 and 8; (4) CD101 20 mg/kg SQ days 1 and 8; and (5) CD101 40 mg/kg SQ days 1 and 8.
# Animals were treated with CD101 SQ or PO (for terbinafine) once a week on days 1 and 8.
# Study Day 1: Infect the animals with T. mentagrophytes and begin treatments.
# Study Day 8: Last treatment.
# Study Day 12: Clinical evaluation of the four quadrants in the marked area is done. Hair samples were obtained from each quadrant. Hairs (10 per quadrant) were planted in Potato Dextrose Agar, and incubated for 48 h for mycological evaluation. Procedures for clinical and mycological evaluations are described below.
# The compounds was administered SQ or PO (0.3 mL/kg […]).
# Clinical assessment of local changes of the infected skin area was scored as follows:
# 1=Few slightly erythematous places on the skin
# 2=Well-defined redness, swelling with bristling hairs.
# 3=Large areas or marked redness incrustation, scaling, bald patches, ulcerated in places.
# 4=Partial damage to the integument and loss of hair
# 5=Extensive damage to the integument and complete loss of hair at the site of infection.
# Any other local skin reactions were noted. The assessment of clinical evaluation in the change of scores per treatment group was expressed as percentage relative to the untreated control group of animals using the following formula:
# where T=Scores in the test group. K=Scores in the untreated control
smiles,measurement,setting,value
"CCCCCOc1ccc(-c2ccc(-c3ccc(C(=O)N[C@H]4C[C@@H](O)[C@@H](OCC[N+](C)(C)C)NC(=O)[C@@H]5[C@@H](O)[C@@H](C)CN5C(=O)[C@H]([C@@H](C)O)NC(=O)[C@H]([C@H](O)[C@@H](O)c5ccc(O)cc5)NC(=O)[C@@H]5C[C@@H](O)CN5C(=O)[C@H]([C@@H](C)O)NC4=O)cc3)cc2)cc1 [CD101] ({pTerphenylCO(4''-OnC5H11)}-[Orn(4R-OH,5R-OCH2CH2NMe3+)]T[Hyp][hTyr(3S-OH,4S-OH)]T[Pro(3S-OH,4S-Me)]; lactam 1-C)",Percent Efficacy Clinical,10 mg/kg SQ days 1 and 8,90.5%
same,Percent Efficacy Clinical,20 mg/kg SQ days 1 and 8,94.2%
same,Percent Efficacy Clinical,40 mg/kg SQ days 1 and 8,98.4%
